Results as given in PubChem BioAssay AID1963971 (Molecular Pharmacology Branch, DTP, NCI, 2024).

System: 953936-095-R-J2-PDC spheroids with HUVEC/MSC, viability
Test: Anticancer human tumor 953936-095-R-J2-PDC patient-derived cervical squamous cell carcinoma cell line growth inhibition [PI3K]
Conditions: for IC50: curve of first compound; for viability, T/C: stronger effect = lower value
Source text: Combinatorial screen of targeted agents with the PI3K inhibitors inavolisib, alpelisib, duvelisib, and copanlisib in multi-cell type tumor spheroids
A high-throughput screen of multi-cell type tumor spheroids was designed to identify active combinations of targeted small molecules and PI3K pathway inhibitors. Complex spheroids include a stromal component modeled by human endothelial cells (HUVEC) and fibroblasts modeled by human mesenchymal stem cells (MSCs). The concentration ranges selected for each drug and investigational agent were based upon clinically achievable concentrations if the clinical Cmax of the agent was known.
Compounds. The drugs and investigational agents: inavolisib (NSC800729), alpelisib (NSC765974), duvelisib (NSC772469), copanlisib (NSC816437), ipatasertib (NSC767898), afuresertib (NSC778305), talazoparib (NSC767125), sapanisertib (NSC764658), selumetinib (NSC741078), tovorafenib (DAY101, NSC766906), vemurafenib (NSC761431), ravoxertinib (NSC781343), sotorasib (NSC818433), MRTX1133 (NSC 836407), abemaciclib (NSC 768073), palbociclib (NSC758247), venetoclax (NSC 766270), SY5609 (NSC837396), enzalutamide (NSC755605), and darolutamide (NSC825331), were obtained from the National Cancer Institute (NCI) Developmental Therapeutics Program Chemical Repository. The FDA-approved anticancer drug set is available from the NCI Developmental Therapeutics Program. […] The stock solutions were prepared in dimethyl sulfoxide (DMSO, Sigma-Aldrich, St. Louis, MO, cat. D2650) at 800-fold the tested concentration and stored at -70 degrees C prior to their use. All drugs and investigational agents were tested over a range starting from a high concentration at or near the clinical Cmax and decreasing in half-log increments. If the clinical Cmax for an agent had not been determined, the highest concentration tested was 10 microM.
Cell Culture. All cells were maintained in an incubator at 37 degrees C and 5% CO2 with 95% humidity. The PDC lines were cultured according to standard operating procedures established by the NCI PDMR (https://pdmr.cancer.gov/sops/default.htm). All PDCs were thawed and cultured in Matrigel-coated flasks prepared with a working solution of 1X Ham's F-12 nutrient mix, without supplementation (Invitrogen, Waltham, MA, cat. 11765054), 100 U/mL penicillin-streptomycin (Invitrogen, cat. 15140122), and 2.5% Matrigel (Corning Inc., Corning, NY, cat. 354248) for the first three passages. The 354836-022-R-J1-PDC, 475296-252-R-J1-PDC, and 997726-040-R-J2-PDC lines were cultured in 6A media, which includes advanced DMEM/F-12 (Thermo Fisher Scientific, cat. 12634028), 10 mM HEPES (Thermo Fisher Scientific, cat. 15630080), 1X GlutaMAX supplement (Thermo Fisher Scientific, cat. 35050061), 0.1 mg/mL primocin (InvivoGen, San Diego, CA, cat. ant-pm-2), 10% defined fetal bovine serum, heat inactivated (HyClone Laboratories Inc., Logan, UT, cat. SH30070.03HI), 50% L-WRN conditioned media (ATCC, cat. CRL-3276), 1.25 mM N-Acetyl-L-cysteine (Sigma-Aldrich, cat. A9165), 10 mM nicotinamide (Sigma-Aldrich, cat. N0636), 1X B-27 supplement (Thermo Fisher Scientific, cat. 17504044), 1X N-2 supplement (Thermo Fisher Scientific, cat. 17502048), and 10 microM Y-27632 dihydrochloride (Tocris Bioscience, Bristol, United Kingdom, cat. 1254). The 624824-186-R-J2-PDC line was cultured in 6C/Colon 1B media, which includes all 6A media components plus 50 ng/mL human EGF recombinant protein (Thermo Fisher Scientific, cat. PHG0311). […]

[1] = second compound 0.0316 µM, first compound 0.0316 µM
[2] = second compound 0.0316 µM, first compound 0.1 µM
[3] = second compound 0.0316 µM, first compound 0.316 µM
[4] = second compound 0.0316 µM, first compound 1 µM
[5] = second compound 0.0316 µM, first compound 3.16 µM
[6] = second compound 0.0316 µM, first compound 10 µM
[7] = second compound 0.1 µM, first compound 0.0316 µM
[8] = second compound 0.1 µM, first compound 0.1 µM
[9] = second compound 0.1 µM, first compound 0.316 µM
[10] = second compound 0.1 µM, first compound 1 µM
[11] = second compound 0.1 µM, first compound 3.16 µM
[12] = second compound 0.1 µM, first compound 10 µM
[13] = second compound 0.316 µM, first compound 0.0316 µM
[14] = second compound 0.316 µM, first compound 0.1 µM
[15] = second compound 0.316 µM, first compound 0.316 µM
[16] = second compound 0.316 µM, first compound 1 µM
[17] = second compound 0.316 µM, first compound 3.16 µM
[18] = second compound 0.316 µM, first compound 10 µM
[19] = second compound 1 µM, first compound 0.0316 µM
[20] = second compound 1 µM, first compound 0.1 µM
[21] = second compound 1 µM, first compound 0.316 µM
[22] = second compound 1 µM, first compound 1 µM
[23] = second compound 1 µM, first compound 3.16 µM
[24] = second compound 1 µM, first compound 10 µM
[25] = second compound 3.16 µM, first compound 0.0316 µM
[26] = second compound 3.16 µM, first compound 0.1 µM
[27] = second compound 3.16 µM, first compound 0.316 µM
[28] = second compound 3.16 µM, first compound 1 µM
[29] = second compound 3.16 µM, first compound 3.16 µM
[30] = second compound 3.16 µM, first compound 10 µM
[31] = second compound 10 µM, first compound 0.0316 µM
[32] = second compound 10 µM, first compound 0.1 µM
[33] = second compound 10 µM, first compound 0.316 µM
[34] = second compound 10 µM, first compound 1 µM
[35] = second compound 10 µM, first compound 3.16 µM
[36] = second compound 10 µM, first compound 10 µM
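Also: spheroids exposed to compounds for seven days before read-out.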

`CC1(C)CCC(Nc2ncc(C(F)(F)F)c(-c3c[nH]c4c(P(C)(C)=O)c(C#N)ccc34)n2)CN1` (centres undefined) + Cc1nc(NC(=O)N2CCCC2C(N)=O)sc1-c1ccnc(C(C)(C)C(F)(F)F)c1 was tested, and the IC50 (second compound 0.0316 µM) was 31.6 nM, the IC50 (second compound 0.1 µM) was 31.6 nM and the IC50 (second compound 0.316 µM) was less than 31.6 nM. The IC50 (second compound 1 µM) was less than 31.6 nM, the IC50 (second compound 3.16 µM) was less than 31.6 nM and the IC50 (second compound 10 µM) was less than 31.6 nM. For the same compound, the viability, T/C [1] was 45.1%, the viability, T/C [2] was 50% and the viability, T/C [3] was 46.5%. It also gave a viability, T/C [4] of 52.4%, a viability, T/C [5] of 55.8% and a viability, T/C [6] of 8.23%. For the same compound, the viability, T/C [7] was 45.9%, the viability, T/C [8] was 39.1% and the viability, T/C [9] was 42.2%. It also gave a viability, T/C [10] of 42.6%, a viability, T/C [11] of 54.3% and a viability, T/C [12] of 5.8%. It also gave a viability, T/C [13] of 38.9%, a viability, T/C [14] of 37.8% and a viability, T/C [15] of 40.8%. For the same compound, the viability, T/C [16] was 38.9%, the viability, T/C [17] was 38.3% and the viability, T/C [18] was 3.36%. It also gave a viability, T/C [19] of 30.8%, a viability, T/C [20] of 27.1% and a viability, T/C [21] of 26%. It also gave a viability, T/C [22] of 28.1%, a viability, T/C [23] of 33.4% and a viability, T/C [24] of 1.62%. For the same compound, the viability, T/C [25] was 18.2%, the viability, T/C [26] was 19.4% and the viability, T/C [27] was 17.2%. The viability, T/C [28] was 20.1%, the viability, T/C [29] was 13.8% and the viability, T/C [30] was 0.46%. The viability, T/C [31] was 9.15%, the viability, T/C [32] was 9.91% and the viability, T/C [33] was 10.7%. The viability, T/C [34] was 10.3%, the viability, T/C [35] was 5.73% and the viability, T/C [36] was 0.31%.
`Cn1ncc(Cl)c1-c1cc(C(=O)NC(CN)Cc2cccc(F)c2)sc1Cl` (centres undefined) + CC(Nc1ncnc2nc[nH]c12)c1cc2cccc(Cl)c2c(=O)n1-c1ccccc1 was tested, and the IC50 (second compound 0.0316 µM) was 630 nM, the IC50 (second compound 0.1 µM) was 617 nM and the IC50 (second compound 0.316 µM) was 547 nM. For the same compound, the IC50 (second compound 1 µM) was 490 nM, the IC50 (second compound 3.16 µM) was 467 nM and the IC50 (second compound 10 µM) was 146 nM. The viability, T/C [1] was 96.5%, the viability, T/C [2] was 90.2% and the viability, T/C [3] was 67.9%. It also gave a viability, T/C [4] of 36.9%, a viability, T/C [5] of 21.8% and a viability, T/C [6] of 12%. For the same compound, the viability, T/C [7] was 95.2%, the viability, T/C [8] was 90% and the viability, T/C [9] was 67%. It also gave a viability, T/C [10] of 37.5%, a viability, T/C [11] of 20% and a viability, T/C [12] of 14.9%. The viability, T/C [13] was 94.1%, the viability, T/C [14] was 81.6% and the viability, T/C [15] was 58.4%. The viability, T/C [16] was 40%, the viability, T/C [17] was 22.4% and the viability, T/C [18] was 12.6%. For the same compound, the viability, T/C [19] was 95.5%, the viability, T/C [20] was 83.5% and the viability, T/C [21] was 58.1%. For the same compound, the viability, T/C [22] was 36.3%, the viability, T/C [23] was 18.1% and the viability, T/C [24] was 13.5%. It also gave a viability, T/C [25] of 82.3%, a viability, T/C [26] of 77.8% and a viability, T/C [27] of 56.7%. It also gave a viability, T/C [28] of 34.4%, a viability, T/C [29] of 18% and a viability, T/C [30] of 8.95%. For the same compound, the viability, T/C [31] was 55.5%, the viability, T/C [32] was 54.5% and the viability, T/C [33] was 42.9%. The viability, T/C [34] was 30.5%, the viability, T/C [35] was 14.6% and the viability, T/C [36] was 5.78%.
